The values that follow come from PMC12434521, “Characterization of Next-Generation Inhibitors for the Inward-Rectifier Potassium Channel Kir2.1: Discovery of VU6080824” (ACS Medicinal Chemistry Letters, 2025).

In data set [1] the target is T1, human Kir2.1 (Homo sapiens, UniProt P63252).
T1 construct: expressed in transfected cells
T1 sequence (P63252 1-427): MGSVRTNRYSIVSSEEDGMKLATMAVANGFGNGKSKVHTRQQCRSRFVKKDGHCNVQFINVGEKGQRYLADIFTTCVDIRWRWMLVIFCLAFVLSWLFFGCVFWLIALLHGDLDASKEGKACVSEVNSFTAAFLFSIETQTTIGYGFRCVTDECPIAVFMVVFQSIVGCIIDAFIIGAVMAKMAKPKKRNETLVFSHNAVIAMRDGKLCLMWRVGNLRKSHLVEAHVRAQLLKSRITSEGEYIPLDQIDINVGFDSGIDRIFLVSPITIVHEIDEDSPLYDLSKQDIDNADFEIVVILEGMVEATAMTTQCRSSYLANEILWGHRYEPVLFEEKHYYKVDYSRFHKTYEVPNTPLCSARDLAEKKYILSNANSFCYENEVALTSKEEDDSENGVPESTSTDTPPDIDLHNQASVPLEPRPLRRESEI
Put plainly: Kir2.1 thallium flux assay. It is filed as cell-based. To be noted: for IC50: T-REx-HEK-293 cells expressing human Kir2.1, 4PL fit, top concentration 30 μM, read-out: Thallium Flux Potency IC50; for Emax: efficacy from 4PL fit, relative to ML133, read-out: Thallium Flux Efficacy (% Inhibition). On the procedure: Thallium Flux Assay Experimental Conditions
The Tl+ flux assays were conducted as previously described with modifications optimized for Kir2.1 cell line as described below.1
Briefly, stable T-REx-HEK-293 cells expressing human K ir2.1 were cultured in DMEM growth medium (Catalog #11965-092, Gibco, Billings, MT) containing 10% heat-inactivated FBS (Catalog #16140, Gibco), 100 U/mL PenStrep, 5 μg/mL Blasticidin S, and 250 μg/mL Hygromycin.
The day prior to the experiment, cells at ~90% confluency were resuspended in plating media, which consisted of the same components as the growth media, except that heat-inactivated FBS was replaced with dialyzed FBS (Catalog #26400, Gibco). Tetracycline was added to the plating media to achieve a final concentration of 1 μg/ml to induce hKir2.1 expression. Cells were then counted and plated at 15,000 cells/well in black-walled, amine- or PDL- coated, 384-well plates at 20 μl/well (Corning, Corning, NY). On the day of experiment, the media was removed from the cell plate and replaced with 20 μl/well of Tl+-sensitive dye loading solution containing 2.5 μg/ml Thallos-AM (Catalog #11000-050, ION Biosciences, San Marcos, TX) in assay buffer using a Multidrop Combi dispenser (Thermo Fisher Scientific, Walkham, MA). Cell plates loaded with dye solution were incubated for 1 hour at room temperature. Following incubation, the cell plate was washed with HBSS assay buffer containing 20 mM HEPES using a BioTek ELx 405 TS plate washer (Agilent, Santa Clara, CA), leaving 20 μl of assay buffer in each well. The cell plate was then transferred to a Panoptic kinetic imaging plate reader (WaveFront Biosciences, Franklin, TN) for imaging at 1 Hz, 482/35 nm excitation and 536/40 nm emission for 10 seconds. Following this, 20 μl/well of HBSS assay buffer containing test compounds at 2-fold over their final concentrations were added and imaging continued for another eight minutes, after which 10 μl/well of chloride-free Tl+ stimulus solution was added (Catalog #11000-050, ION Biosciences). The final Tl2SO4 concentration in cell plate post-Tl+ stimulus solution addition was 0.25 mM. Images were collected for an additional two minutes. A ten-point concentration series from 30 μM to 2 nM with a 1:3 dilution factor was generated using an Echo liquid handler 650 (Labcyte, San Jose, CA). Final DMSO concentration, 0.3% (v/v) in the assay was constant across all compound concentrations.
The initial slopes of the Tl+-induced fluorescence changes were fit to a four-parameter logistic equation using our in-house software Waveguide to determine potency and efficacy values. […]
Bauer, J. A.; Days, E. L.; Lindsley, C. […]

Data set [2] is described as follows: Rat PK PBL cassette (i.v.). In kind it is in vivo, Sprague-Dawley rat. To be noted: Sprague-Dawley, iv, male SD rat, 0.2 mg/kg i.v. cassette; for Kp at 0.25 h: brain and plasma, 0.25 time point (15 min post dosing), read-out: Kp (total brain to plasma ratio); for AUC / clearance / half-life / MRT / Vd: plasma, n = 1; for AUC: read-out: AUC; for clearance: read-out: CLp; for half-life: read-out: Elim. t1/2 (converted); for MRT: read-out: MRT; for Vd: read-out: Vss. The source says:
While ML133 has found use as a Kir2.1 tool molecule across many disease models, the in vivo PK of this and related compounds within the dibenzylamine chemotype have not previously been characterized. As a highly efficient method for profiling the PK of a compound set, we therefore examined ML133 (alongside 9 additional next-generation Kir2.1 inhibitors) in our rat PK PBL cassette dosing platform (Table ). − From this experimental setup, administration of a 4-compound bolus dose, plus a standard control, can be used to determine a variety of PK parameters in a high-throughput fashion. Specifically, Sprague–Dawley (SD) rats were given 0.2 mg/kg of each Kir2.1 inhibitor (i.v. dosing, 4 compounds +1 control, total dose 1 mg/kg) with PK measured across set time points up to 24 h. Additionally, a separate cohort of animals was utilized to assess total plasma-brain levels (PBL, ratio reported as Kp) of compound at a 0.25 time point. In this fashion, standard plasma-based PK parameters (elimination t 1/2, […] (MRT), plasma clearance (CLp), and volume of distribution (Vss)) were measured alongside a parallel assessment of total brain exposure.
PK PBL Cassette Experimental Conditions
4 compounds plus one control were formulated as a solution in ethanol, PEG400, and DMSO (1:3:6 v/v, respectively) at a concentration of 1 mg/mL and administered as a single IV dose (1 mL/kg, 0.2 mg/kg per compound, total 1 mg/kg) to male, Sprague Dawley rats (n = 1) via injection into a surgically -implanted jugular vein catheter. Blood samples were collected serially from a surgically implanted carotid artery catheter in each animal over multiple post -administration time points (0.033, 0.117, 0.25, 0.5, 1, 2, 4, 7, and 24 hours) into chilled, K 2EDTA anticoagulant - fortified tubes and immediately placed on wet ice. The blood samples were then centrifuged (1700 rcf, 5 minutes, 4 °C) to ob tain plasma samples, which were stored at -80 °C until analysis […]
For determination of the brain over plasma ratio (K p), the same cassette of compounds plus control were formulated in ethanol, PEG400, and DMSO (1:3:6 v/v, respectively) and administered as a single IV dose (1 mL/kg, 0.2 mg/kg per compound, total 1 mg/kg) to male, Sprague Dawley rats ( n = 1) via injection into a surgically-implanted jugular vein catheter. At 15 min post dosing, blood sample was collected terminally into chilled, K 2EDTA anticoagulant-fortified tube and immediately placed on wet ice. The bloo d sample was then centrifuged (1700 rcf, 5 minutes, 4 °C) to obtain plasma sample. At the same post-administration time point, whole brain sample was obtained by rapid dissection, rinsed with PBS, and immediately frozen in individual tissue collection box (dry ice). All brain and plasma samples were stored at -80 °C until […]
Samples preparation for bioanalysis
Plasma samples from the in-life phase of the study were thawed at ambient temperature (benchtop), and then aliquots (20 µL per sample) were transferred to a 96-shallow-well (V-bottom) plate. Matrix-matched quality control (QC) samples and a standard curve of each analyte (1 mg/mL DMSO stock solution) were prepared in blank rat plasma (K2EDTA-treated) via serial dilution and transferred (20 µL each) to the plate along with multiple blank plasma samples. MeCN (120 µL) containing IS (10 nM carbamazepine) was added to each well of the plate to precipitate protein. The plate was then centrifuged (4000 rcf, 5 minutes, ambient temperature), and resulting supernatants (60 µL each) were transferred to a new 96-shallow-well (V-bottom) plate containing an equal volume (60 µL per well) of water (Milli-Q purified). The plate was then sealed in preparation for LC-MS/MS analysis.
Preparation of brain samples was identical to that of plasma samples except for the following modifications. While thawing, brains were weighed (inside their collection boxes using a universal empty collection box tare weight) and then subjected to mechanical homogenization […]

Data set [3] has as its target T1, human Kir2.1. Put plainly: Kir2.1 manual patch clamp (MPC) assay. In kind it is cell-based. To be noted: pH 7.4, -120 mV, normalized to 2 mM Ba2+ block; top concentration 10 μM (ML133 30 μM, 5t 3 μM). On the procedure:
Manual Patch Claim Assay Experimental Conditions
Whole-cell patch-clamp electrophysiology was used to record K ir2.1 currents from a stably transfected monoclonal T-Rex-HEK-293 cell line with a tetracycline-inducible promoter expressing human Kir2.1, as described previously1 cultured in a 5% CO2 incubator at 37°C. Kir2.1 expression was induced by overnight treatment with 1 µg/mL tetracycline. Cells were dissociated using 0.25% Trypsin-EDTA and seeded onto 12 mm circular coverslips (Electron Microscopy Sciences, PA, USA) for same-day whole-cell patch-clamp recordings. Kir2.1 currents were recorded at room temperature using an AxoPatch 200B amplifier with Clampex 10.7 software (Molecular Devices, USA). The voltage-clamp protocol consisted of a 1-s step to -120 mV from a -80 mV holding potential, followed by a 2-s ramp to +40 mV, repeated every 10 s. Data were sampled at 5 kHz and filtered at 1 kHz. Patch pipettes, pulled from 1.5 mm OD thin-walled capillaries (Warner Instruments, MA, USA) using a Sutter P-1000 puller (Sutter Instrument, CA, USA), had resistances of 2–3 MΩ when filled with intracellular solution containing (mM): 135 KCl, 10 HEPES, 1 EGTA, 2 MgCl2, 2 Na2ATP (pH 7.35, adjusted with KOH). The extracellular solution contained (mM): 135 NaCl, 5 KCl, 2 CaCl2, 1 MgCl2, 5 Glucose, 10 HEPES, 10 Sucrose (pH 7.35, adjusted with NaOH). After establishing stable baseline Kir2.1 currents, cells were perfused with compounds at concentrations of 0.03–30 µM until response saturation (within minutes).
Recordings concluded with a 2 mM Ba2+ solution to isolate Ba2+-sensitive currents, with compound responses expressed as fractions of this current. Current amplitudes at the -120 mV step were analyzed using Clampfit 11.2 (Molecular Devices). IC50 values were calculated by fitting the Hill equation to concentration-response curves (CRCs) using variable -slope nonlinear regression in GraphPad Prism 10.4 (GraphPad Software).
MPC experiments for Kir2.2 and Kir2.3 were conducted in an analogous fashion.1
A general note: The patch-clamp technique gives a direct electrical read-out from membranes.

Consider `COc1ccc(CNCc2ccc(-c3cccc(C)c3)cc2)cc1` [Compound 5r], for which, at human Kir2.1 [1], the IC50 came to 8.5 µM and the Emax stood at 99%. Besides, in data set [2], the Kp at 0.25 h was 2.29, the exposure (AUC) is 162 ng·h/mL, the clearance is 20.6 mL/min/kg and the half-life was 104 min. Besides, in data set [2], the mean residence time MRT worked out at 78.6 min and the Vd stood at 1.62 L/kg.
Regarding `COc1ccc(CNCc2cncc3ccccc23)cc1` [Compound 5b], at human Kir2.1 [1], the “Fold less potent than ML133 in the thallium flux assay” value is recorded as “approximately 2 fold”, the 50% inhibitory concentration (IC50) was 24.8 µM and the Emax turned out to be 140%. For the same compound, in data set [2], the Kp at 0.25 h came out at 1.05, the area under the curve (AUC) was found to be 183 ng·h/mL, the clearance was found to be 18.2 mL/min/kg and the half-life was 17.4 min. For the same compound, in data set [2], the MRT was determined as 21.6 min and the Vd is 0.39 L/kg.
On to `COc1ccc(CNCc2ccc(-c3cccc(OC)c3)cc2)cc1` [Compound 13], for which the values for the half-inhibitory concentration (IC50) at human Kir2.1 [1] and against human Kir2.1 [3] were 4.7 µM and 0.21 µM, respectively.
For `COc1ccc(CNCc2ccc(-c3cccc(OC)c3)cc2)cc1` [Compound 9] the same measures were 5.4 µM and 0.21 µM.
The like results for `COc1ccc(CNCc2ccc(-c3cccc(OC)c3)cc2)cc1` [Compound 11] were, in that order, 4.3 µM and 0.33 µM.

Usually IC50 stands for the concentration needed to halve the response being measured. By AUC is commonly meant the area under the concentration-time curve, a measure of exposure. For orientation: MRT means a mean duration of stay, worked out from the concentration-time curve.
